Results as given in patent publication US20020052323A1, “Quinoline-(C=O)-(multiple amino acids)-leaving group compounds for pharmaceutical compositions and reagents” (priority 2000, published 2002).
Several values for one entry are separate records, joined by “and”; a condition that tells them apart may be missing. Identical values can stand only once. Like-named read-outs stand apart in the source and are kept apart here.

Key:
caspase 3 = molecular target: T1, caspase 3 (Homo sapiens, UniProt P42574); test: Caspase inhibition assay, AcDEVD-AFC substrate; type: biochemical
T1 sequence (P42574 29-175 limits assumed): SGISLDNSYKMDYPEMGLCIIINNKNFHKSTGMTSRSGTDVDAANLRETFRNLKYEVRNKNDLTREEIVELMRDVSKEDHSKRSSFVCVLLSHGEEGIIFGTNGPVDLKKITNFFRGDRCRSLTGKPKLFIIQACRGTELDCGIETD
T1 sequence (P42574 176-277 limits assumed): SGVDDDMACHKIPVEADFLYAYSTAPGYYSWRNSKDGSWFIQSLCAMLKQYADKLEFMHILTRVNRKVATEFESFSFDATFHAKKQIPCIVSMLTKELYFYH
Procedure: (§1) The determination of the IC50/μm was performed according to Gary Johnson, 9401 James Avenue, Suite No. 155, Bloomington, Minn. 55431.
(§2) Caspase Inhibition Assay:—Caspases are diluted in caspase buffer, 0.1 M HEPES, 10% sucrose 0.1% CHAPS and 10 mM DTT, pH 7.5. Caspases 1, 3, and 8 are used at a concentration of 144 U/well and caspase 9 is used at 4.8 U/well in a 96 well fluorometric plate.
(§3) Inhibitors are initially dissolved in DMSO at 10 mg/ml and further dilutions can be prepared in caspase buffer. The inhibitors are generally tested at concentrations ranging from 50 uM to 0.005 uM. These are usually prepared as 2 fold or 2.5 fold decreasing dilutions. The enzyme approximately 144 U in 120 ul caspase buffer is added to 380 ul caspase buffer containing the appropriate concentration on the inhibitor and incubated on ice for 15 min. The reactants 200 ul are then added to a black fluorimetric plate and incubated in the fluorometer at 37° C. for 30 min.
(§4) During the incubation period appropriate coumarin substrates are prepared by dilution in DMSO and caspase buffer to provide a 0.417 mM working stock. AcYVAD-AFC is used for caspase 1, AcDEVD-AFC for caspase 3. AcIETD-AFC for caspase 8 and Ac-LEHD-AFC for capsase 9. Twenty five microliters of the stock solution are added to 200 ul of the caspase and inhibitor test solutions to give a final substrate concentration of 0.046 mM.
(§5) The fluorometer is set to 400 nm excitation and 505 nm emission. The enzyme-inhibitor-substrate is allowed to incubate at for an additional twenty min. and the response is read as fluorescence units vs inhibitor concentration. The responses are plotted as percent of the maximum response (response in the absence of inhibitor) for each concentration of the inhibitor. The inhibitory activity for each inhibitor is described as the concentration of inhibitor that produces a 50% inhibition of the maximum response (IC50).

caspase 8 = caspase 8 (Homo sapiens, UniProt Q14790); test: Caspase inhibition assay, AcIETD-AFC substrate; type: biochemical
caspase 8, sequence (Q14790 217-374 limits assumed, species assumed): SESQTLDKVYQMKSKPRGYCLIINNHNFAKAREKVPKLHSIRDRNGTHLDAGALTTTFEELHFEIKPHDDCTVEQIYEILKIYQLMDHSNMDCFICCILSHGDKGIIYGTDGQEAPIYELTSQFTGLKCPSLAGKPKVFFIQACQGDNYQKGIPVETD
caspase 8, sequence (Q14790 385-479 limits assumed, species assumed): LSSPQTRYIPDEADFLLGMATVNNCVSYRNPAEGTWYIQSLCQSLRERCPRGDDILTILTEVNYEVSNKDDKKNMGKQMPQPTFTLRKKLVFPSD
Procedure: as §1, §2, §3
During the incubation period appropriate coumarin substrates are prepared by dilution in DMSO and caspase buffer to provide a 0.417 mM working stock. AcYVAD-AFC is used for caspase 1, AcDEVD-AFC for caspase 3. […]
The fluorometer is set to 400 nm excitation and 505 nm emission. The enzyme-inhibitor-substrate is allowed to incubate at for an additional twenty min. and the response is read as fluorescence units vs inhibitor concentration. […]

caspase 1 = molecular target: T2, caspase 1 (Homo sapiens, UniProt P29466); test: Caspase inhibition assay, AcYVAD-AFC substrate; type: biochemical
T2 sequence (P29466 120-297 limits assumed): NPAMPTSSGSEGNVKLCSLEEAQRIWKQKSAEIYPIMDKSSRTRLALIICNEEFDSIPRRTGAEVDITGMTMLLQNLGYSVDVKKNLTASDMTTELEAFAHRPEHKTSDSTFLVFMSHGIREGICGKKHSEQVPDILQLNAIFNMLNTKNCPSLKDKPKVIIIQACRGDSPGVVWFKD
T2 sequence (P29466 317-404 limits assumed): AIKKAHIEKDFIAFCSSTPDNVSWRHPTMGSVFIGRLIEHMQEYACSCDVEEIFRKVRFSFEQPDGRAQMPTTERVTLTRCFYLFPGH
Procedure: as §1, §2, §3, §4, §5

caspase 9 = molecular target: T3, caspase 9 (Homo sapiens, UniProt P55211); test: Caspase inhibition assay, Ac-LEHD-AFC substrate; type: biochemical
T3 sequence (P55211 1-315 limits assumed): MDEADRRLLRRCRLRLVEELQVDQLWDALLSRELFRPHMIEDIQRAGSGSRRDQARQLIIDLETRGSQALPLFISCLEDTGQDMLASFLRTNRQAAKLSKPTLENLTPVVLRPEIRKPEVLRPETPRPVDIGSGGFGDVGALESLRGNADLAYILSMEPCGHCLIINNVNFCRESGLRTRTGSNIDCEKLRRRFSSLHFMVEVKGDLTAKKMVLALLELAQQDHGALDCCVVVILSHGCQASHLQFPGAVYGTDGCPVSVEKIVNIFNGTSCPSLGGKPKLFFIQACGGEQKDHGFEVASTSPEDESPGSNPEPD
T3 sequence (P55211 331-416 limits assumed): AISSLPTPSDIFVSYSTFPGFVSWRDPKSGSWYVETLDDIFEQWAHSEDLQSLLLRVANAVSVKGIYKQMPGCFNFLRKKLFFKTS
Procedure: as §1, §2, §3, §4, §5

[1] = from figure, antilog of log concentration, read-out: IC50 caspase 3
[2] = from figure, antilog of log concentration, read-out: IC50 caspase 1
[3] = esterase treated inhibitor, read-out: IC50 caspase 1

## COC(=O)CC(NC(=O)C(NC(=O)c1ccc2ccccc2n1)C(C)C)C(=O)COc1cc(N)ccc1C(=O)O (stereo not drawn) [Q-VD(OMe)-ASA, Quinoline-(2-Carbonyl)-Val-Asp(OMe)-α-(2-oxy-Amino Salicylic Acid)]
Caspase 3; Table 5, read-out: CASP-3 IC50
  IC50: 1240 nM
Caspase 3; [1]
  IC50: ~1230 nM and ~980 nM
Caspase 8; Table 5, read-out: CASP-8 IC50
  IC50: 5880 nM
Caspase 8; from figure, read-out: IC50 caspase 8
  IC50: ~5820 nM
Caspase 1; Table 5, read-out: CASP-1 IC50
  IC50: 1500 nM
Caspase 1; [2]
  IC50: ~1460 nM
Caspase 9; from figure, antilog of log concentration
  IC50: ~5440 nM

## COC(=O)CC(NC(=O)C(NC(=O)c1ccc2ccccc2n1)C(C)C)C(=O)COc1ccc(CCNC(=O)OC(C)(C)C)cc1O (stereo not drawn) [Q-VD(OMe)-DOPA-BOC]
Caspase 3; Table 5, read-out: CASP-3 IC50
  IC50: < 25000 nM

## COC(=O)CC(NC(=O)C(NC(=O)c1ccc2ccccc2n1)C(C)C)C(=O)COc1ccccc1C(=O)O (stereo not drawn) [Q-VD(OMe)-SA, Quinoline-(2-Carbonyl)-Val-Asp(OMe)—CH—O-Salicylic Acid]
Caspase 3; Table 5, read-out: CASP-3 IC50
  IC50: 500 nM
Caspase 1; Table 5, read-out: CASP-1 IC50
  IC50: 1430 nM
Caspase 1; [2]
  IC50: ~1430 nM

## COC(=O)C[C@H](NC(=O)[C@@H](NC(=O)c1ccc2ccccc2n1)C(C)C)C(=O)COC1=C(c2ccccc2)C(=O)OC1 [Q-VD(OMe)-Tetronic Acid, Quinoline-(2-Carbonyl)-Val-Asp(OMe)—CH2-2-Phenyltetronic Acid]
Caspase 3; Table 5, read-out: CASP-3 IC50
  IC50: 250 nM

## COC(=O)C[C@H](NC(=O)[C@H](C)NC(=O)[C@@H](NC(=O)c1ccc2ccccc2n1)C(C)C)C(=O)CF [QVAD(OMe)FMK, Quinoline-(C═O)Val-Ala-Asp(OMe)-Fluoromethyl Ketone]
other
  concentration vs. >90% cell survival: 100 µM

## COC(=O)CC(NC(=O)C(CC(C)C)NC(=O)c1ccc2ccccc2n1)C(=O)CF [quinoline-(2-carbonyl)-L-D(OMe)—CH2-FMK]
Caspase 3; esterase treated inhibitor, read-out: IC50 caspase 3
  IC50: ~31 nM
Caspase 3; non-esterase treated inhibitor, read-out: IC50 caspase 3
  IC50: 45 nM
Caspase 1; [3]
  IC50: ~39.8 nM
Caspase 9; esterase treated inhibitor
  IC50: ~70 nM
Caspase 9; non-esterase treated inhibitor
  IC50: ~65 nM

## CC(C)C[C@H](NC(=O)c1ccc2ccccc2n1)C(=O)N[C@@H](CC(=O)O)C(=O)COc1ccccc1 [quinoline-(2-carbonyl)-L-D-CH2—OPh]
Caspase 3; [1]
  IC50: ~50 nM
Caspase 1; [2]
  IC50: ~548 nM

## COC(=O)CC(NC(=O)C(NC(=O)c1ccc2ccccc2n1)C(C)C)C(=O)CF [quinoline-(2-carbonyl)-V-D(OMe)—CH2-FMK, Quinoline-(2-Carbonyl)-V-D-(OMe)-α-CH2F (the Fluoromethyl Ketone)]
Caspase 1; [3]
  IC50: ~68 nM
Caspase 9; esterase treated inhibitor
  IC50: 25 nM
Caspase 9; non-esterase treated inhibitor
  IC50: ~29 nM

## Quinoline-(2-Carbonyl)-Val-Asp(OMe)-α-(3-oxy-Dopamine) [Q-VD(OMe)-DOPA.TFA]
Caspase 3; Table 5, read-out: CASP-3 IC50
  IC50: 2000 nM
